| Compound | melting point [°C] |
| --- | --- |
| COc1cc2c(=O)c(Cc3cccnc3)cn3c4ccc(Br)cc4c(c1)c23 | 150 to 151 |
| COc1ccc(C=C2Cc3c(C)cc(C)c(O)c3C2=O)cc1 | 192 to 193 |
| CN(C)C(=O)Sc1ccccc1C(=O)c1ccc(C#N)cc1 | 102 |
| CC#CNc1c([N+](=O)[O-])cc(C(F)(F)F)c(Cl)c1[N+](=O)[O-] | 86 to 87 |
| Cc1nnc(-c2ccc(O)cc2)o1 | 239 |
| CN(C)c1cc(CO)ncn1 | 137 to 139 |
| COc1nc(NC(=O)NS(=O)(=O)c2ccccc2C(=O)OC(C)C)nc(OC)n1 | 192 to 195 |
| COc1cc(OC)c(-c2nc(N)sc2C)cc1Cl | 188 |
| O=C(NNS(=O)(=O)c1ccccc1)c1ccc(Cl)cc1Cl | 168 to 170 |
| N#CC(C#N)=CN(N=C(C#N)C#N)c1cccc(F)c1 | 134 to 135 |
| CC(C)(C)c1ccc(C(=O)Nc2cn3cc(-n4ccnc4)ccc3n2)cc1 | 289 to 291 |
| CS(=O)(=O)Nc1ccc2ccccc2c1-c1c(P(c2ccccc2)c2ccccc2)ccc2ccccc12 | 109 |
| CCCCNNc1nc(C)c(C(=O)OCC)c(Cl)c1[N+](=O)[O-] | 59 to 61 |
| COc1cc(Cl)c2[nH]c(=O)[nH]c(=O)c2c1OC | 282 to 284 |
| N#Cc1cccc(-c2ccc3c(Cl)c[nH]c(=O)c3c2)c1 | > 300 |
| CCCCCCCCN(CCCCCCCC)C(=O)c1cc(C(C)(C)C)c(OC(=O)c2cc(C(C)(C)C)c(O)c(C(C)(C)C)c2)c(C(C)(C)C)c1 | 145 to 146 |
| CSc1ccc(CNC(=O)c2sc(NC(C)=O)nc2CCc2ccc(NC(=O)OC(C)(C)C)cc2)cc1 | 182 to 183 |
| CC(C)(C)c1cc(Cn2nc(C=Cc3nn(Cc4cc(C(C)(C)C)c(O)c(C(C)(C)C)c4)c(=O)o3)oc2=O)cc(C(C)(C)C)c1O | 263 |

| Compound | melting point [°C] |
| --- | --- |
| CCCOc1ccc(F)cc1C1=NC(=O)C2=NC=NC2=N1 | 238 |
| CC(=O)c1nn(-c2c(Cl)cc(C(F)(F)F)cc2Cl)cc1SC(F)(F)F | 89 to 91 |
| Cc1ccc(-c2c(Cl)nc(-c3cccs3)nc2Cl)cc1 | 120 |
| CN(C)C(=O)Sc1ccc(CC#N)cc1 | 97 to 99 |
| NCCc1ccc(C(N)=O)cc1 | 132 to 133 |
| COC(=O)C=C1CN=C(c2ccccc2F)c2cc(Cl)ccc2N1 | 158 to 160 |
| CCCN1C(=O)c2ccccc2C1(SCc1ccccc1)c1ccc(Cl)cc1 (centres undefined) | 132 to 133 |
| CCn1cc(Cl)c(=O)[nH]c1=O | 217 to 220 |
| COc1ccc(C2Cc3cc(OC)c(OC)c(OC)c3C2=O)cc1 (centres undefined) | 104 to 106 |
| NC=C1C(=O)N(c2cccc(Cl)c2)c2ccccc21 | 141 to 143 |
| COc1nc2ccc(Br)cc2cc1Cc1ccccc1 | 83 to 85 |
| NS(=O)(=O)c1ccc(F)cc1 | 123 to 125 |
| O=C/C(=C/c1ccccc1)c1ccc(Cl)cc1 | 70 to 75 |
| CSCC(C)(C)NC(=O)c1c(I)cccc1Oc1ccc(Cl)cc1C | 128 to 130 |
| O=c1c2c(n(-c3ccccc3)c3ncccc13)CCC2 | 235 to 237 |
| O=C1CCCCc2ccccc21 | 79 to 84 |
| CC1(c2ccccc2)OC(C=Cc2ccncc2)=CC1=O (centres undefined) | 165 to 166 |

Further lines, results first:

| melting point [°C] | Compound |
| --- | --- |
| 204 to 205 | CC1=C(C(=O)Nc2ccccc2)SC2=NCCN21 |
| 234 to 235 | O=C(Nc1c(C(=O)O)[nH]c2cc(Cl)cc(Cl)c12)c1ccccc1Cc1ccccc1 |
| 279 to 281 | O=C(O)c1cc(F)c(N2CCNCC2)nc1Nc1ccc(F)cc1F |
| 201 to 203 | CCOC(=O)C=CNc1oc2ccc(CC)cc2c(=O)c1C=O |
| 106 | CCCN(CCCCNC(=O)N1CCc2cc(OC)c(OC)cc2C1)C1CCc2ncsc2C1 (centres undefined) |
| 191 to 193 | O=C1Cc2ccccc2C12COc1cc3c(cc12)OCC(Cc1ccccc1C(F)F)O3 (centres undefined) |
| 148 to 149 | CC(=O)NCc1ccc(CN2CCN(c3ccccc3)CC2)cc1N |
| 128 to 130 | O=C(OCCO)c1cc(-c2ccc(Cl)cc2)c[nH]1 |
| 156 to 158 | CC(C)C(OC(=O)NC1(C(=O)O)CC1)OC(=O)C1CCCCC1 (centres undefined) |
| 163 to 165 | O=C(NC1CCCc2ccccc21)c1ccc2n1Cc1ccccc1N(C(=O)CSc1ccc(Br)cc1)C2 (centres undefined) |
| 118 to 125 | O=C1NC(=O)C(c2cn(CCCO)c3ccc(F)cc23)=C1c1cccc(NCC(O)CO)c1 (centres undefined) |
| 204 to 206 | COC(=O)CCc1ccc(N2CCN(c3ccc4c(c3)CCC4=O)C2=O)cc1 |
| 116 to 117 | CC(=O)CCc1ccc2c(c1)Cc1cc(N)ccc1-2 |
| 151 to 152 | COC(=O)c1cccc(I)c1C(=O)NC(C)(C)CS(C)=O (centres undefined) |
| 105 to 107 | Cc1cc2oc(=O)c3c(c2cc1C)CCN(CC(C)N(C)C)C3 (centres undefined) |
| 206 to 208 | CCOC(=O)C(C#N)=CNc1ccc(C=C(C#N)C(=O)OCC)o1 |
| 116 to 118 | O=C(O)c1ccc(OC(F)(F)F)c(OC2CCCC2)c1 |
| 186 to 188 | CC(=O)NC[C@H]1CN(c2cc(F)c(N3CCC(n4cccc4)CC3)c(F)c2)C(=O)O1 |
| 88 to 90 | O=c1oc2c(c(O)c1C(c1ccccc1)C1CC1)CCCCC2C(O)C1CC1 (centres undefined) |
| 94.2 | O=C(O)C(=O)c1ccoc1 |

| melting point [°C] | Compound |
| --- | --- |
| 219 to 220 | CC1(C)Oc2ccc(S(=O)(=O)C(F)(F)F)cc2[C@@H](n2ccccc2=O)[C@@H]1O (relative stereo) |
| 46 to 48 | CC(C)CN1C(=O)[C@H](CCCC#N)C[C@H]1CO |
| 146 to 147 | O=C(/C=C/C=C(c1ccc(Cl)cc1)c1ccc(Cl)cc1)NCCCCc1cccnc1 |
| 303 to 305 | CC1CCc2c(-n3cccc3)ccc3c(=O)c(C(=O)O)cn1c23 (centres undefined) |
| 209 to 211 | CCCn1nc2c(N)nc3ccccc3c2c1CC1(O)CCOCC1 |
| > 265 | O=C(O)c1cc2c(Cl)ncnc2s1 |
| 183 to 185 | Cn1ncc(C(=O)N2CCOCC2)c1C(=O)Nc1ccc2nc(-c3ccccc3)nn2c1 |
| 93 to 94 | NC(=S)C=C(N)CCOCc1ccccc1 |
| 196 to 198 | O=C(O)C1C2OCCC21Br (mixture of isomers) |
| 170 to 174 | CC1CCc2c(N3CCCC3)ccc3c(=O)c(C(=O)O)cn1c23 (centres undefined) |
| 65 to 69 | O=C1c2ccccc2C(c2ccccc2)N1C1CCN(CCC(c2ccccc2)c2ccccc2)CC1 (centres undefined) |
| 159 to 161 | CC(=O)NCC1CN(c2ccc(N3CCS(=O)CC3)c(F)c2)C(=O)O1 (centres undefined) |
| 213 to 214 | N=C1CC(=O)Oc2cc(OCC(O)COc3ccccc3)ccc21 (centres undefined) |
| 40 | CC(C)(C)OC(=O)NCCCBr |
| 217 to 218 | CCc1ccnc(C(=O)c2[nH]c3ccc(Cl)cc3c2CC(=O)O)c1 |
| 148 to 149 | CCOC(=O)N1CCC(=C2c3ccc(Cl)cc3OCc3cc(Br)cnc32)CC1 |
| 212 to 214 | Cc1nc(NC(=O)c2ccc(Cl)c(Cl)c2)sc1C(=O)NCc1ccccc1 |
| 138 to 139 | O=C(O)CC1CCCCc2c1c1cc(F)ccc1n2Cc1ccc(Cl)cc1 (centres undefined) |
| 172 to 174 | O=CN1CCC(C(c2ccccc2)c2ccccc2)CC1 |

Source: a melting point compilation (Tetko et al.; mined from patent text by program, amines drawn as free bases though some values may be those of a salt)
